Measured values as given in US5824646A, “Intravaginal delivery of biologically active polypeptides” (Teikoku Seiyaku Co., Ltd., priority 1997, dated 1998).
Where no end group is shown, it is not given here.

How the values were obtained:
[1] = tested on: oophorectomized female Wister rats; assay: Serum calcium decrease after intravaginal porcine calcitonin in young oophorectomized rats; type: in vivo, rat
Experimental: Oophorectomy was performed on 5- to 6-week old female Wister rats which, after about one month, were used in this experiment as an animal model for postmenopausal women.
To 20 I.U. porcine calcitonin, 3 mg of bovine serum albumin (BSA) was added. Sodium lauryl sulfate (hereinafter called "SDS") was then added to the above-prepared mixture to make 0.05, 0.1, 0.5 and 1 w/v% concentrations, respectively. The mixtures of different SDS concentrations were then each diluted with 0.1M acetic acid/sodium acetate buffer solution (pH 5.0) to make 1 ml calcitonin solutions. Rats were anesthetized with ether, and a required amount of blood was taken from the right external jugular vein before the administration of calcitonin. After a small cotton ball was inserted into the vagina of the rat, each 50 microliters of calcitonin solution of different SDS concentrations was administered. Blood was again extracted 2 hours after calcitonin administration.
After the separation of blood serum, serum calcium concentration was determined with a Calcium C test kit, a registered trademark at Wako Chemical in Japan. The results are depicted in FIG. 1.
Oophorectomized menopausal model rats were used in this experiment, similarly to Example 1.
Bovine serum albumin was added to each 1 ml of 2, 10, 20, 40 and 80 I.U./ml of porcine calcitonin dissolved in acetic acid buffer solution (pH 5.0) to make 3 mg/ml. Then, SDS was added to each solution to make 1 w/v%. Similarly to Example 1, these preparations containing different concentrations of calcitonin were administered intravaginally to the rats, and the serum calcium concentration was determined. […] The largest ratio of decreased serum calcium against control noted in this experiment was 30%.

[2] = tested on: 5-week-old Wister male rats; assay: Effect of SDS on calcitonin stability: bioassay of stored preparations by intramuscular injection; type: in vivo, rat
Experimental: A porcine calcitonin (P--CT) pharmaceutical preparation according to the invention was prepared by the method described in Examples 1 and 2, and the stability of porcine calcitonin in the resultant preparation was investigated. Thus, 1 ml of 3 mg/ml bovine serum albumin (BSA) solution was added to 40 I.U. of porcine calcitonin, and the mixture was divided into two equal portions. SDS was added to one of the portions to make a final concentration of 0.1 w/v%; and no SDS was added to the other portion. The pH of both of the preparations was then adjusted to pH 5 with acetic acid/sodium acetate buffer (0.1M) solution. These two preparations were then stored at 37° C. for 8 days. The biological activity of calcitonin of the 8-day stored preparations was then investigated using 5-week-old Wister male rats. A dosage of 0.12 I.U./kg calcitonin of these two preparations was administered to the rats by injection into the femoral muscle. One hour after drug administration, blood was extracted from the right external jugular vein, and the blood calcium content was determined.

[3] = tested on: 5-week-old male Wister rats; assay: Effect of pH and human serum albumin on calcitonin stability: bioassay by intramuscular injection; type: in vivo, rat; settings: 0.03 I.U./ml, 4° C. for one week, bioassay 0.06 I.U./kg i.m.
Experimental: Using blood calcium decreasing ratio as an indication, the effect of pH and human serum albumin (HSA) on the stability of calcitonin in the preparation of this invention was investigated using 5-week-old male Wister rats.
Purified porcine calcitonin (P--CT) was dissolved in 0.1M acetic acid buffer solutions of pH 3.0 and pH 5.0 and 0.1M phosphoric acid buffer solution of pH 6.8 so that each of the solutions contained 0.03 I.U./ml of porcine calcitonin. Each calcitonin solution (pH 3.0, 5.0, 6.8) was divided into two parts. In each case, to one portion of the calcitonin solutions 3 mg/ml of HSA was added, while no treatment was performed on the other portion. The resultant preparations were stored at 4° C. for one week. These calcitonin preparations were then each injected into the femoral bicipital muscle of the rats at a dosage of 0.06 I.U. per kg body weight. An appropriate quantity of blood was extracted from the right external jugular vein, and blood […] was determined with a Calcium C-Test kit.

[4] = tested on: aged, oophorectomized rats; assay: Serum calcium decrease by porcine calcitonin in aged oophorectomized rats; type: in vivo, rat; settings: intramuscular injection (femoral bicipital muscle), different concentrations
Experimental: The ovaries of 30-week-old female Wister rats were excised about one month before use in the experiment.
Prior to this experiment, a separate experiment was performed to investigate the susceptibility of aged, oophorectomized rats to porcine calcitonin. Different concentrations of calcitonin were injected into rats in the femoral bicipital muscle, and the decreasing serum calcium was determined.
Following the procedure of Examples 1 and 2, a dose of 4 I.U. calcitonin per rat was prepared and administered intravaginally by inserting a small cotton ball in the vagina. Following the procedure of Examples 1 and 2, blood was extracted and the blood calcium concentration was determined.

oophorectomized rats [5] = assay: Serum H-CT (RIA) and serum calcium after intravaginal H-CT with sodium caprate and Nonidet P-40; type: in vivo, rat; settings: 250 micrograms H-CT, 0.3% BSA, 1% sodium caprate, 2% Nonidet P-40, pH 5, 1, 2 and 4 hours
Experimental: Oophorectomized rats were used in this experiment in a similar manner as Example 3. 1 mg of H--CT was dissolved in 400 microliters of 0.1M acetate buffer (pH 5) containing 0.3 w/v% bovine serum albumin (BSA) and 1% sodium caprate and 2% Nonidet P-40. 100 microliters of H--CT solution (250 micrograms H--CT) was administered into the vagina of the rat with a small cotton ball. Blood samples were taken from the right external jugular vein of the anesthetized rats at 1, 2 and 4 hours after administration. Serum calcium was determined with a Calcium C test kit. Serum H--CT was also determined by the RIA method using human calcitonin antibody.

oophorectomized rats [6] = assay: Serum calcitonin (RIA) and serum calcium after intravaginal human calcitonin with SDS; type: in vivo, rat; settings: 10-200 micrograms HCT per kg, 0.3% BSA, 1 w/v% SDS, pH 5, 2 hours
Experimental: Similarly to Examples 1 and 2, oophorectomized rats were used in this experiment. 1000 micrograms of Human calcitonin (HCT) was dissolved in 1 ml of 0.1M acetate buffer (pH 5) containing 0.3 w/v% bovine serum albumin and 1 w/v% SDS. 10, 25, 50, 100 and 200 micrograms of HCT (protein weight) in solution per 1 kg body weight of rats were taken out of the HCT solution mentioned above, and each portion of the HCT solution was diluted up to 50 microliters with 0.1M acetate buffer (pH 5) containing 0.3% (w/v%) bovine serum albumin and 1 w/v% SDS. Each 50 microliters of HCT solution with a different amount of HCT was administered into the vagina with a small cotton ball. Two hours after drug administration, blood was extracted from the right external jugular vein of the anesthetized rat, and serum calcium was determined with a Calcium C test kit. Serum calcitonin was also determined by a radioimmunoassay method (RIA method), using human calcitonin antibody.

oophorectomized rats [7] = assay: Serum glucose after intravaginal insulin preparation; type: in vivo, rat; settings: 5 U. insulin, 1 w/v% SDS
Experimental: The oophorectomized rats described in Example 1 were used in this experiment. The insulin pharmaceutical preparation prepared according to this invention was administered intravaginally to the rats, and the change in plasma glucose was investigated. Bovine serum albumin and SDS were added to a solution of 100 U./ml insulin in 0.1M acetic acid/sodium acetate buffer solution to make a final concentration of 3 mg/ml and 1 w/v%, respectively. The pH was adjusted to 5.0 with 0.1M acetic acid/sodium acetate buffer solution. The 5 U. insulin preparation was administered into the vagina of the rat with a small cotton ball. Serum glucose at 2 hours after drug administration was compared with that before drug administration. It was noted that at 2 hours after drug administration, the blood sugar level decreased about 30% in comparison with that prior to drug administration.

intravaginal protease = assay: Protease activity of vaginal wash with BAEE as substrate after intravaginal preparation; type: biochemical, rat
Experimental: The calcitonin pharmaceutical preparation was prepared according to Examples 1 and 2. The preparation was inserted into the vagina with a small cotton ball. Two hours after the insertion, the inserted cotton ball was removed from the vagina. The vagina was then washed with a fixed quantity of phosphate buffered saline solution, the washed solution was combined with the cotton ball, and the protease activity was determined with BAEE as substrate.

oophorectomized rats [8] = assay: Serum calcium and serum calcitonin after intravaginal S-CT suppository; type: in vivo, rat; settings: PEG suppository, 250 micrograms S-CT, BSA, Nonidet P-40, sodium caprate, 1, 2 and 4 hrs
Experimental: The model animals and experimental procedures are similar to that described in Example 10. The suppositories used in this Example were prepared as follows. 1 mg of S--CT was dissolved in 100 microliters of 0.1M acetate buffer solution (pH 5) containing 1.5 mg of BSA (bovine serum albumin), 10 mg of Nonidet P-40, and 5 mg of sodium caprate. 383 mg of suppository base composed of PEG 4000 (33%), PEG 6000 (47%) and distilled water (20%) was warmed to 45° to 50° C., then mixed well with the S--CT solution using a Vortex mixer for 1 min, then transferred into a brass suppository mold and cooled to approximately 4° C. for 2 hrs. 125 mg of S--CT suppository contained 250 micrograms of S--CT. 250 micrograms of a S--CT suppository was administered into the rat vagina. 1, 2, and 4 hrs after administration, blood samples were taken, and the serum calcium concentration and the serum calcitonin were determined by the same method used in Example 10.

[9] = 3 mg/ml BSA, pH 5.0, after 2 hours

Compound: porcine calcitonin (CSNLSTCVLSAYWRNLNNFHRFSGMGFGPETP; ends and bridges not checked; cysteine pairing not given here; UniProt P01259 1-32, looked up) [P-CT]
- ratio of decreased serum calcium against control (dose response) ([1]; 2, 10, 20, 40 and 80 I.U./ml porcine calcitonin, 3 mg/ml BSA, 1 w/v% SDS, pH 5.0, intravaginal): exhibited an increase proportional to the increase of calcitonin concentration
- largest ratio of decreased serum calcium against control ([1]; 2-80 I.U./ml porcine calcitonin, 3 mg/ml BSA, 1 w/v% SDS, intravaginal, young oophorectomized rats): 30%
- Ratio of Decreased Calcium Concentration Against Control, 0 day ([2]; P-CT (40 I.U.)/0.3% BSA/ml, pH 5.0, freshly made, 0.12 I.U./kg i.m., 1 hour): 20.7
- Ratio of Decreased Calcium Concentration Against Control, 8 days (at 37° C.) ([2]; P-CT (40 I.U.)/0.3% BSA/ml, pH 5.0, stored 8 days at 37° C., 0.12 I.U./kg i.m., 1 hour): 11.1
- biological activity after the 8-day storage period ([2]; stored at 37° C. for 8 days, pH 5, compared with freshly made preparation): decreased to about half that of the freshly made preparation
- stability of calcitonin in pH 6.8 solution with HSA ([3]; 3 mg/ml HSA added): became as stable as calcitonin in a solution of pH 3.0 or 5.0
- stability of calcitonin in buffer solutions without HSA, pH 3.0 and 5.0 ([3]; 0.1M acetic acid buffer): stable
- stability of calcitonin in buffer solution without HSA, pH 6.8 ([3]; 0.1M phosphoric acid buffer): unstable
- largest ratio of decreased serum calcium against control [4]: about 10%

Compound: Human calcitonin [HCT]
- serum calcitonin (RIA) (oophorectomized rats [5]): increased proportionally to the increase in the dosage of calcitonin administered into the vagina
- serum calcium (oophorectomized rats [5]): decreased correspondingly with an increase in calcitonin dosage
- serum calcitonin (RIA) (oophorectomized rats [6]): increased proportionally to the increase in the dosage of calcitonin administered into the vagina
- serum calcium (oophorectomized rats [6]): decreased correspondingly with increase in calcitonin dosage

Compound: insulin
- Glucose Concentration in Serum (oophorectomized rats [7]; [9]): 53 ± 24.6 mg/dL
- Glucose Concentration in Serum relative to prior to administration (100) (oophorectomized rats [7]; [9]): 70.7%
- decrease of blood sugar level in comparison with that prior to drug administration (oophorectomized rats [7]; BSA, 2 hours): about 30%

Compound: CCCCCCCCCCCCOS(=O)(=O)[O-].[Na+] [SDS, Sodium lauryl sulfate]
- decrease of protease activity in comparison with the control group (intravaginal protease; 1% SDS added group versus control without SDS): about 30%
- protease activity relative to control (control = 100.0) (intravaginal protease; 1% SDS in calcitonin preparation, vaginal wash 2 hours after insertion): 29.2
- protease activity (intravaginal protease; 1% SDS in calcitonin preparation, vaginal wash plus cotton ball 2 hours after insertion): 6.84 BAEE units/mg protein
- ratio of decreased serum calcium concentration against the control ([1]; porcine calcitonin 20 I.U./ml, 3 mg BSA, SDS 0.05, 0.1, 0.5 and 1 w/v%, pH 5.0, 50 microliters intravaginal, 2 hours, control without SDS): increased correspondingly with increasing concentration of SDS

Compound: salmon calcitonin [S--CT]
- absorption of S-CT and its biological activity (oophorectomized rats [8]): exhibit a dose-dependent response
